Several values for one entry are separate records, joined by “and”; a condition that tells them apart may be missing. Equal values may be shown once. Read-outs that look alike come from different tables or passages of the source.
How the values were obtained:
[1] = biological target: T1, Aurora-2 (Aurora A) (Homo sapiens, UniProt O14965); test: Aurora-2 (Aurora A) inhibition assay, coupled enzyme; format: biochemical; conditions: read-out: Aurora A kinase Ki value
T1 sequence (O14965 1-403): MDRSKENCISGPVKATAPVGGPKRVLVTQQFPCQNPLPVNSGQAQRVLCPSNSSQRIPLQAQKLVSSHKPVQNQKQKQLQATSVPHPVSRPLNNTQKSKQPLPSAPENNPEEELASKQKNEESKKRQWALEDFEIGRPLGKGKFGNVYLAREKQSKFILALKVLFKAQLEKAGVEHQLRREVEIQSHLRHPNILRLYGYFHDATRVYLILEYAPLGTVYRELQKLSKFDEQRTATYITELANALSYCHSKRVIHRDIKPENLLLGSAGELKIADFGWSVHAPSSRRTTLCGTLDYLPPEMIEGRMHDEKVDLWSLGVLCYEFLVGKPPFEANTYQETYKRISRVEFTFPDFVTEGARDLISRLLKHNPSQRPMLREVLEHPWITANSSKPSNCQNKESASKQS
Method: Assays were carried out in a mixture of 100 mM Hepes (pH7.5), 10 mM MgCl2, 1 mM DTT, 25 mM NaCl, 2.5 mM phosphoenolpyruvate, 300 μM NADH, 30 μg/ml pyruvate kinase and 10 μg/ml lactate dehydrogenase. […] Assays were carried out at 30° C. and in the presence of 40 nM Aurora-2.
The plate was preincubated for 10 minutes at 30° C. and the reaction initiated by addition of 10 μl of Aurora-2. Initial reaction rates were determined with a Molecular Devices SpectraMax Plus plate reader over a 10 minute time course. IC50 and Ki data were calculated from non-linear regression analysis using the Prism software package (GraphPad Prism version 3.0cx for Macintosh, GraphPad Software, San Diego Calif., USA).

[2] = biological target: Aurora-1 (Aurora B) (Homo sapiens, UniProt Q96GD4); test: Aurora-1 (Aurora B) inhibition assay (radiometric); format: biochemical; conditions: read-out: Aurora B kinase Ki value
Method: An assay buffer solution was prepared which consisted of 25 mM HEPES (pH 7.5), 10 mM MgCl2, 0.1% BSA and 10% glycerol. […] To 22 μL of the Aurora-B solution, in a 96-well plate, was added 2 μl of a compound stock solution in DMSO and the mixture allowed to equilibrate for 10 minutes at 25° C. The enzyme reaction was initiated by the addition of 16 μl stock [γ-^33P]-ATP solution (˜20 nCi/μL) prepared in assay buffer, to a final assay concentration of 800 μM. The reaction was stopped after 3 hours by the addition of 16 μL 500 mM phosphoric acid and the levels of ^33P incorporation into the peptide substrate were determined by the following method.
A phosphocellulose 96-well plate (Millipore, Cat no. MAPHNOB50) was pre-treated with 100 μL of a 100 mM phosphoric acid prior to the addition of the enzyme reaction mixture (40 μL). The solution was left to soak on to the phosphocellulose membrane for 30 minutes and the plate subsequently washed four times with 200 μL of a 100 mM phosphoric acid. […] Levels of non-enzyme catalyzed background radioactivity were determined by adding 16 μL of the 500 mM phosphoric acid to control wells, containing all assay components (which acts to denature the enzyme), prior to the addition of the [γ-^33P]-ATP solution. Levels of enzyme catalyzed. ^33P incorporation were calculated by subtracting mean background counts from those measured at each inhibitor concentration. […] Ki values were calculated from initial rate data by non-linear regression using the Prism software package (Prism 3.0, Graphpad Software, San Diego, Calif.).

[3] = tested on: Colo205 cells; test: Analysis of cell proliferation and viability; format: cell-based; conditions: Homo sapiens, read-out: IC50 value
Method: Colo205 cells were seeded in 96 well plates and serially diluted compound was added to the wells in duplicate. Control groups included untreated cells, the compound diluent (0.1% DMSO alone) and culture medium without cells.
To measure proliferation, 3 h prior to the end of the experiment 0.5 μCi of 3H thymidine was added to each well. Cells were then harvested and the incorporated radioactivity counted on a Wallac microplate beta-counter. Cell viability was assessed using Promega CellTiter 96AQ to measure MTS conversion. Dose response curves were calculated using either Prism 3.0 (GraphPad) or SoftMax Pro 4.3.1 LS (Molecular Devices) software.

[4] = COLO 205, Colo205 cells, incubated for 72 hours
[5] = COLO 205, Colo205 cells, incubated for 96 hours

Aurora-1 (Aurora B), sequence (Q96GD4 whole entry): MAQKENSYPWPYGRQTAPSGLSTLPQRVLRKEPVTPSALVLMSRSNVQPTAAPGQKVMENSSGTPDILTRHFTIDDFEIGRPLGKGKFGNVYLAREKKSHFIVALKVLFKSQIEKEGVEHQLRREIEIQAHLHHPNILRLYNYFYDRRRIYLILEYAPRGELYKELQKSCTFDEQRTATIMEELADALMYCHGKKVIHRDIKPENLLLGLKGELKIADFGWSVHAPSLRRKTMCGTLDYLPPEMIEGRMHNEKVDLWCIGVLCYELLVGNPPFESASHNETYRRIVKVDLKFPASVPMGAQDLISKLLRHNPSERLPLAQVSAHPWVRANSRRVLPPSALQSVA

Structure (SMILES)	Ki [1] [µM]	Ki [2]	IC50 [3, 4] [µM]	IC50 [3, 5] [µM]	IC50 ([3]; COLO 205, 72 h) [µM]	IC50 ([3]; COLO 205, 96 h) [µM]
COC1(C2CC2)CN(c2cc(Nc3cc(C)[nH]n3)nc(Sc3ccc(NC(=O)C4CC4)cc3)n2)C1 [Compound 118]	≤ 0.001	≤ 0.01 µM	≤ 0.03	–	–	–
Cc1cc(Nc2cc(N3CCC3)nc(Sc3ccc(NC(=O)c4ccccc4C(F)F)cc3)n2)[nH]n1 [Compound 120]	–	–	> 0.2	–	–	–
Cc1cc(Nc2cc(N3CC(C)(C#N)C3)nc(Sc3ccc(NC(=O)c4ccccc4C(F)(F)F)cc3)n2)[nH]n1 [Compound 122]	≤ 0.001	≤ 0.01 µM	0.03 to 0.2	–	–	–
Cc1cc(Nc2cc(N3CC4(CCCO4)C3)nc(Sc3ccc(NC(=O)C4CC4)cc3)n2)[nH]n1 [Compound 123]	0.001 to 0.005	≤ 0.01 µM	0.03 to 0.2	–	–	–
CCN(C)C(=O)c1ccc(Sc2nc(Nc3cc(C)[nH]n3)cc(N3CC(O)(C4CC4)C3)n2)cc1 [Compound 125]	0.001 to 0.005	0.05 to 2 µM	> 0.2	–	–	–
CCOP(=O)(O)OC1(C)CN(c2cc(Nc3cc(C)n[nH]3)nc(Sc3ccc(NC(=O)c4ccccc4C(F)(F)F)cc3)n2)C1 [Compound 129]	≤ 0.001	≤ 0.01 µM	> 0.2	–	–	–
Cc1cc(Nc2cc(N3CC(F)(F)C3)nc(Sc3ccc(NC(=O)CC(F)(F)F)cc3)n2)[nH]n1 [Compound 130]	0.001 to 0.005	0.01 to 0.05 µM and < 0.025 µM	0.03 to 0.2	–	–	–
Cc1cc(Nc2cc(N3CC(O)(C4CC4)C3)nc(Sc3ccc(N4CCCC4=O)cc3)n2)n[nH]1 [Compound 133]	≤ 0.001	0.01 to 0.05 µM and < 0.025 µM	≤ 0.03	–	–	–
CCC(Nc1ccc(Sc2nc(Nc3cc(C)n[nH]3)cc(N3CC(O)(C4CC4)C3)n2)cc1)C(F)(F)F (stereo not drawn) [Compound 136]	≤ 0.001	0.05 to 2 µM	> 0.2	–	–	–
Cc1cc(Nc2cc(N3CCC3)nc(Sc3ccc(NC(=O)c4cccc(CN5CCC5)c4)cc3)n2)[nH]n1 [Compound 140]	–	0.05 to 2 µM	–	0.05 to 1	–	–
CCOc1ccc(Sc2nc(Nc3cc(C)n[nH]3)cc(N3CC(C(=O)N4CCCC4)C3)n2)cc1 [Compound 141]	0.001 to 0.005	0.05 to 2 µM	> 0.2	–	–	–
Cc1cc(Nc2cc(N3CC(F)(C4CC4)C3)nc(Sc3ccc(NC(=O)C4(C(F)(F)F)CC4)cc3)n2)[nH]n1 [Compound 143]	–	–	–	–	≤ 0.03	–
CCC(=O)Nc1ccc(Sc2nc(Nc3cc(C)[nH]n3)cc(N3CC(F)(C4CC4)C3)n2)cc1 [Compound 147]	0.001 to 0.005	–	–	–	0.03 to 0.2	–
Cc1cc(Nc2cc(N3CC(O)(C4CC4)C3)nc(Sc3ccc4nc(C)ccc4c3)n2)[nH]n1 [Compound 153]	≤ 0.001	≤ 0.01 µM	–	≤ 0.05	–	–
Cc1cc(Nc2cc(N3CC(F)(C4CC4)C3)nc(Sc3ccc4nc(C)ccc4c3)n2)[nH]n1 [Compound 154]	≤ 0.001	0.01 to 0.05 µM and < 0.025 µM	–	0.05 to 1	–	–
Cc1cc(Nc2cc(N3CC(F)(C4CC4)C3)nc(Sc3ccc4c(c3)N(C)C(C(F)(F)F)N4)n2)[nH]n1 (stereo not drawn) [Compound 156]	≤ 0.001	0.01 to 0.05 µM and < 0.025 µM	0.03 to 0.2	0.05 to 1	–	–
Cc1cc(Nc2cc(N3CC(F)(C4CC4)C3)nc(Sc3ccc(NC(=O)CCC(F)(F)F)cc3)n2)[nH]n1 [Compound 157]	–	–	–	–	≤ 0.03	≤ 0.05
CSc1ccccc1C(=O)Nc1ccc(Sc2nc(Nc3cc(C)[nH]n3)cc(N3CCC3)n2)cc1 [Compound 165]	–	–	–	0.05 to 1	–	–
Cc1cc(Nc2cc(N3CC(F)(C4CC4)C3)nc(Sc3ccc(N)cc3)n2)[nH]n1 [Compound 174]	–	–	> 0.2	–	–	–
Cc1cc(Nc2cc(N3CC(N4CCCC4)C3)nc(Sc3ccc4nc(C(F)(F)F)n(C)c4c3)n2)[nH]n1 [Compound 176]	–	0.01 to 0.05 µM and < 0.025 µM	≤ 0.03	–	–	–
Cc1cc(Nc2cc(N3CCC3)nc(Sc3ccc(NC(=O)c4ccccc4Cl)nc3)n2)[nH]n1 [Compound 207]	0.001 to 0.005	–	> 0.2	–	–	–
